Here are results for 1 compound from US20080114041A1, “Benzothiazolesulfonamides” (AstraZeneca AB, priority 2004, published 2008).

The term IC50 denotes the concentration that inhibits the measured activity by half.

The test deals with T1, hVR1 (Homo sapiens, UniProt Q8NER1).
T1 construct: expressed in transfected cells
Kind of test: hVR1 FLIPR (Fluorometric Image Plate Reader) screening assay. It is filed as cell-based. The note with it: transfected CHO cells stably expressing hVR1; inhibition of calcium increase after agonist (50 nM capsaicin or MES buffer pH 5.2); agonist not given. How it is done:
1. hVR1 FLIPR (Fluorometric Image Plate Reader) Screening Assay
Transfected CHO cells, stably expessing hVR1 (15,000 cells/well) are seeded in 50 ul media in a black clear bottom 384 plate (Greiner) and grown in a humidified incubator (37° C., 2% CO2), 24-30 hours prior to experiment.
Subsequently, the media is removed from the cell plate by inversion and 2 μM Fluo-4 is added using a multidrop (Labsystems). Following the 40 minutes dye incubation in the dark at 37° C. and 2% CO2, the extracellular dye present is washed away using an EMBLA (Scatron), leaving the cells in 40 ul of assay buffer (1×HBSS, 10 mM D-Glucose, 1 mM CaCl2, 10 mM HEPES, 10×7.5% NaHCO3 and 2.5 mM Probenecid).
FLIPR Assay—IC50 Determination Protocol
For IC50 determinations the fluorescence is read using FLIPR filter 1 (em […]). A cellular baseline recording is taken for 30 seconds, followed by a 20 μl addition of 10, titrated half-log concentrations of the test compound, yielding cellular concentration ranging from 3 μM to 0.1 nM. […] This consequently leading to a reduction in fluorescence signal and providing a reduced fluorescence reading, compared with no compound, buffer controls. Data is exported by the FLIPR program as a sum of fluorescence calculated under the curve upon the addition of capsaicin. […]

T1 sequence (Q8NER1 whole entry): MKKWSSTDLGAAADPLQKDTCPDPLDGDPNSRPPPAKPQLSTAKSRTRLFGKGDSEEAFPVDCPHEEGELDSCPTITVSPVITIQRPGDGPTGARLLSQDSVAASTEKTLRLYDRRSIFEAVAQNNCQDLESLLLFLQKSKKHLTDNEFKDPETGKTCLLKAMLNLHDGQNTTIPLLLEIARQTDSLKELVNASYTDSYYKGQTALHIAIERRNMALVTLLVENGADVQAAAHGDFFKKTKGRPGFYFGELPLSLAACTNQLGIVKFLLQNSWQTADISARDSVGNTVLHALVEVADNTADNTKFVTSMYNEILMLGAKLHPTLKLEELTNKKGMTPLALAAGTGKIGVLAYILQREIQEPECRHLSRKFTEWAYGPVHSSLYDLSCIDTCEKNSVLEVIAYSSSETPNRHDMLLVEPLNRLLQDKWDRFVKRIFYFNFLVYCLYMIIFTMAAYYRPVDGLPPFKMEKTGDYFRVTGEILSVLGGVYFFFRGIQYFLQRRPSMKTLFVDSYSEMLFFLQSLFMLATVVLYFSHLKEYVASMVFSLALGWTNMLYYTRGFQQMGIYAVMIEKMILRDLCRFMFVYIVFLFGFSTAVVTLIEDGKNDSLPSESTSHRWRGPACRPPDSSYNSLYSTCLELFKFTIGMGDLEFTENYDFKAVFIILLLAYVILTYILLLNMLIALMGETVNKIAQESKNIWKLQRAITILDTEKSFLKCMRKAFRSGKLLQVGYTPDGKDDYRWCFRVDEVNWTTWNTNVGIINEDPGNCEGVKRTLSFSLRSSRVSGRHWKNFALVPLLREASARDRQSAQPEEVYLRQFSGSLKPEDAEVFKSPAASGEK

For `O=S(=O)(NCc1cccc(C(F)(F)F)c1)c1ccc2sc(CO)nc2c1` [Compound 5, 2-(hydroxymethyl)-N-[3-(trifluoromethyl)benzyl]-1,3-benzothiazole-5-sulfonamide], the IC50 is 2870 nM.
